The values below come from ChEMBL document CHEMBL4184109, “Design, synthesis, and structure-activity relationship studies of novel tetrazole antifungal agents with potent activity, broad antifungal spectrum and high selectivity” (Bioorg Med Chem Lett, 2018).

The pIC50 is the IC50 on a negative log10 scale, so that one unit is a factor of ten. A high value points to a low IC50. By MIC80 is commonly meant the lowest concentration that inhibits either 80% of growth or 80% of the strains tested, depending on the study. The low end stands for greater potency, the high end for weaker potency.

The target of assay [1] is T1, Cytochrome P450 1A2 (Homo sapiens, UniProt P05177).
T1 sequence (P05177 whole entry): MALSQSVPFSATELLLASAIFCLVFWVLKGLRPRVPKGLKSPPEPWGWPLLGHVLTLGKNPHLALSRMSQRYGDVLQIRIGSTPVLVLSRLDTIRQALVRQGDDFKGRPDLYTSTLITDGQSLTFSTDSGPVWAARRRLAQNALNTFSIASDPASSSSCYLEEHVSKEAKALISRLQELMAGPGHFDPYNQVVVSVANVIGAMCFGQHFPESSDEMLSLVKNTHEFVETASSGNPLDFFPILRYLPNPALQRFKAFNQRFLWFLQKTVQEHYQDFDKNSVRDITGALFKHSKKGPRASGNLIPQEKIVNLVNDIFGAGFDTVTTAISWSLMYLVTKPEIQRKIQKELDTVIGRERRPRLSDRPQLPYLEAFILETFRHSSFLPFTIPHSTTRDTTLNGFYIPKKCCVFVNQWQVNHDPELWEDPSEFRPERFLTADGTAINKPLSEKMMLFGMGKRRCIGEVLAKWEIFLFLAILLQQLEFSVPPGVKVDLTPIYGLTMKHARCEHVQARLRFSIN
The experiment in a line: Inhibition of CYP1A2 in human liver microsomes using phenacetin as substrate preincubated for 10 mins with substrate followed by NADPH addition measured after 15 mins by LC/MS/MS analysis. The assay is classed as ADME. In general terms: Microsomes from liver hold many membrane-bound enzymes, among them those of drug oxidation.

Assay [2] has as its system Candida albicans. The experiment in a line: Antifungal activity against Candida albicans Y0109 after 24 hrs by serial dilution method. The assay is classed as functional. As to conditions: Y0109, 24 h.
For assay [3], the system named is Candida albicans. The experiment in a line: Antifungal activity against Candida albicans SC5314 after 24 hrs by serial dilution method. As to conditions: SC5314, 24 h. The assay is classed as functional.
In assay [4] the test system is Candida parapsilosis. The experiment in a line: Antifungal activity against Candida parapsilosis ATCC 22019 after 24 hrs by serial dilution method. As to conditions: Lodderomyces parapsilosis, ATCC 22019, 24 h. Format: functional.
In assay [5] the test system is Nakaseomyces glabratus. The experiment in a line: Antifungal activity against Candida glabrata after 24 hrs by serial dilution method. The assay is classed as functional.
In assay [6] the test system is Cryptococcus neoformans. The experiment in a line: Antifungal activity against Cryptococcus neoformans after 72 hrs by serial dilution method. Format: functional.
For assay [7], the system named is Aspergillus fumigatus. The experiment in a line: Antifungal activity against Aspergillus fumigatus after 48 hrs by serial dilution method. The assay is classed as functional.
Assay [8] deals with Trichophyton rubrum. The experiment in a line: Antifungal activity against Trichophyton rubrum by serial dilution method. Format: functional.
The test system of assay [9] is Nannizzia gypsea. The experiment in a line: Antifungal activity against Microsporum gypseum by serial dilution method. The assay is classed as functional.
Assay [10] addresses Cytochrome P450 2C19 (Homo sapiens, UniProt P33261). The experiment in a line: Inhibition of CYP2C19 in human liver microsomes using mephenytoin as substrate preincubated for 10 mins with substrate followed by NADPH addition measured after 15 mins by LC/MS/MS analysis. Format: ADME.
Assay [11] concerns the target Cytochrome P450 2C9 (Homo sapiens, UniProt P11712). The experiment in a line: Inhibition of CYP2C9 in human liver microsomes using tolbutamide as substrate preincubated for 10 mins with substrate followed by NADPH addition measured after 15 mins by LC/MS/MS analysis. The assay is classed as ADME.
Assay [12] concerns the target Cytochrome P450 2D6 (Homo sapiens, UniProt P10635). The experiment in a line: Inhibition of CYP2D6 in human liver microsomes using dextromethorphan as substrate preincubated for 10 mins with substrate followed by NADPH addition measured after 15 mins by LC/MS/MS analysis. Format: ADME.
Assay [13] has as its system Candida albicans. The experiment in a line: Potency index, ratio of VT-1161 MIC80 to compound MIC80 for Candida albicans Y0109. The assay is classed as functional.
The test system of assay [14] is Candida albicans. The experiment in a line: Potency index, ratio of VT-1161 MIC80 to compound MIC80 for Candida albicans SC5314. Format: functional.
For assay [15], the system named is Candida parapsilosis. The experiment in a line: Potency index, ratio of VT-1161 MIC80 to compound MIC80 for Candida parapsilosis ATCC 22019. The assay is classed as functional.
Assay [16] deals with Nakaseomyces glabratus. The experiment in a line: Potency index, ratio of VT-1161 MIC80 to compound MIC80 for Candida glabrata. Format: functional.
For assay [17], the system named is Cryptococcus neoformans. The experiment in a line: Potency index, ratio of VT-1161 MIC80 to compound MIC80 for Cryptococcus neoformans. The assay is classed as functional.
For assay [18], the system named is Trichophyton rubrum. The experiment in a line: Potency index, ratio of VT-1161 MIC80 to compound MIC80 for Trichophyton rubrum. Format: functional.
In assay [19] the test system is Nannizzia gypsea. The experiment in a line: Potency index, ratio of VT-1161 MIC80 to compound MIC80 for Microsporum gypseum. Format: functional.

SMILES strings stand for the structures. pIC50: −log10 of the molar value. Converted amounts (≈) assume the structure as drawn.

Chain of Cytochrome P450 2C9 (P11712 whole entry): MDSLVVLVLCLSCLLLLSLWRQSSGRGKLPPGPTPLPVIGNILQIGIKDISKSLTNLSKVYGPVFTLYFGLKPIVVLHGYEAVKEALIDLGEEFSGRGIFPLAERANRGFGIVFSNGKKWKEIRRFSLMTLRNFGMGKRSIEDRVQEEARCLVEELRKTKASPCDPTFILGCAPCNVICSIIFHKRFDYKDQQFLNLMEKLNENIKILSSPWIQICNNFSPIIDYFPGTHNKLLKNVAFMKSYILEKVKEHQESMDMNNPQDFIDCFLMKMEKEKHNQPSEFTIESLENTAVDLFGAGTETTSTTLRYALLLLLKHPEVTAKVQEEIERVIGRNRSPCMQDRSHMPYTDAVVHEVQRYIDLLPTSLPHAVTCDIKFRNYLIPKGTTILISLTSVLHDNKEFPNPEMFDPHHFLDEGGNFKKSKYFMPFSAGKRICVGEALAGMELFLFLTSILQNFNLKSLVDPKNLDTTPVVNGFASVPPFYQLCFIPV
Chain of Cytochrome P450 2C19 (P33261 whole entry): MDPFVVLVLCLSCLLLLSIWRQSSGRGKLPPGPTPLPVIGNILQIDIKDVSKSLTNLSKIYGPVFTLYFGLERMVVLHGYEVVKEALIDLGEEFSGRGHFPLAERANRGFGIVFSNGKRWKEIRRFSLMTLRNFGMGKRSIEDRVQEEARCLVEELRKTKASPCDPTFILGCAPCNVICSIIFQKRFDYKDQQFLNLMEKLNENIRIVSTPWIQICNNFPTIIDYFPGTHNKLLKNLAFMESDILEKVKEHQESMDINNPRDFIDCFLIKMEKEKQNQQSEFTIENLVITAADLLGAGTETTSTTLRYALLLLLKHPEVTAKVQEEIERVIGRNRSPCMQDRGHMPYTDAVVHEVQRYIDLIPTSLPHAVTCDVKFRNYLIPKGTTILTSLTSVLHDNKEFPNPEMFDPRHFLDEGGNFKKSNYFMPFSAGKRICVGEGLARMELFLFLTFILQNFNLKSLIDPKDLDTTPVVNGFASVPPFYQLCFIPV
Chain of Cytochrome P450 2D6 (P10635 whole entry): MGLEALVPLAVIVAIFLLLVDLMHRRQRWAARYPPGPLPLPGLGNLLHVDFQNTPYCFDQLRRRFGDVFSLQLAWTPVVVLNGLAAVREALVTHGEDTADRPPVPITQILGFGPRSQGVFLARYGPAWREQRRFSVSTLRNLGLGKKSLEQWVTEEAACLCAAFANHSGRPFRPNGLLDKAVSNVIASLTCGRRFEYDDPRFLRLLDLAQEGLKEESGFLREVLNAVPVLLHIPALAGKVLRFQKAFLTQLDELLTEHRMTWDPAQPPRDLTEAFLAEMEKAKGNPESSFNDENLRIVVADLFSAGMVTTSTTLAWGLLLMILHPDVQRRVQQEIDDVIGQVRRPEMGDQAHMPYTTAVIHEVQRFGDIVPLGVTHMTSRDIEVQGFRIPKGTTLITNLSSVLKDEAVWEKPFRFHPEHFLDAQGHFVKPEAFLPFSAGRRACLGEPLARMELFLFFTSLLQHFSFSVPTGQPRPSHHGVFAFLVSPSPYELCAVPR

Consider `CC(C)(C)Cn1ncn(-c2ccc(C(F)(F)C(O)(Cn3cnnn3)c3ccc(F)cc3F)nc2)c1=O` (centres undefined), for which the pIC50 in [1] is 4.60; in [10], 4.70; in assay [11] it was 4.60; in assay [12], 5.11. The MIC80 in assay [2] was 0.25 µg/mL (≈ 0.494 µM); in assay [3], 0.5 µg/mL (≈ 0.987 µM); in assay [4] it was 0.5 µg/mL (≈ 0.987 µM); in assay [5], 1 µg/mL (≈ 1.97 µM); in assay [6], 0.5 µg/mL (≈ 0.987 µM); in assay [7], more than 64 µg/mL. In addition, the MIC80 in assay [8] stood at 2 µg/mL (≈ 3.95 µM); in assay [9], 4 µg/mL (≈ 7.9 µM). Also, the Ratio in assay [13], in assay [14], in assay [15], in assay [16], in assay [17] and in assay [18] was 2 - 4 in each case. The Ratio in assay [19] is listed as 2 - 4.
